Results reported in patent US9040547B2, “Pyrrolopyrimidine and purine derivatives” (PFIZER INC., priority 2011, dated 2015).

Tests used:
Format in all cases: cell-based
PC9-DRH = experiment: Cell proliferation assay (CellTiter-Glo), PC9-DRH; details: value marked (PC9-DRH), read-out: 3T3 del_T790M IC50, (PC9-DRH)
Procedure: (§1) Cell proliferation was measured using the CellTiter-Glo® Luminescent Cell Viability Assay. The assay involves the addition of a single reagent (CellTiter-Glo® Reagent) directly to cells cultured in serum-supplemented medium. The assay uses this one-step addition to induce cell lysis and generate a luminescent signal proportional to the amount of ATP present which is directly proportional to the number of metabolically active cells present in culture. The following cell lines were evaluated in this assay: NIH3T3/EGFR_L858R, NIH3T3/EGFR_E746-A750_deletion, NIH3T3/EGFR L858R+T790M, NIH3T3/EGFR_E746-A750_deletion+T790M, PC-9, PC9-DRH, NCI-H1975, and NCI-H3255. NIH/3T3 parental cells, NCI-H1975, and NCI-H3255 were purchased from the American Type Culture Collection (Manassas, Va.), and PC-9 cells were obtained from Japan. All cells were cultured according to recommendations. NIH/3T3 cells were grown in DMEM (Invitrogen, Carlsbad, Calif.) supplemented with 10% newborn calf serum (Invitrogen), and NIH3T3/EGFR mutant cells were grown in complete media with 5 μg/mL puromycin (Invitrogen). PC-9, NCI-H1975, and NCI-H3255 were grown in RPMI (Invitrogen, Carlsbad, Calif.) supplemented with 10% FBS (Sigma, St Louis, Mo.), and PC9-DRH cells were grown in complete media with 2 uM PF-00299804. Plasmids (pLPCX) with various EGFR constructs were made by GenScript (Piscataway, N.J.), and stable pools of NIH/3T3 cells expressing these constructs were made at Pfizer La Jolla. PC9-DRH cells were generated at Pfizer La Jolla by exposing cells to increasing concentrations of PF-00299804. Cells were plated in complete culture media (3000-5000 cells/well, 50 μl/well) on the bottom of white clear-bottom tissue culture treated microtiter plates (#3610, Corning Inc, Corning, N.Y.) and allowed to adhere overnight at 37° C., 5% CO2. The following day, compound dilution plates were prepared in 96 well clear V-bottom 0.5 mL polypropylene block plates (#3956, Corning, Inc). All cell lines were not evaluated for each compound. Each compound evaluated was prepared as a DMSO stock solution (10 mM). Compounds were tested in duplicate on each plate, with an 11-point serial dilution curve (1:3 dilution). Compound treatment (50 μl) was added from the compound dilution plate to the cell plate. The highest compound concentration was 1 or 10 μM (final), with a 0.3% final DMSO (#D-5879, Sigma, St Louis, Mo.) concentration. Plates were then incubated at 37° C., 5% CO2. After three to five days of compound treatment, CellTiter-Glo® Reagent (#G7573, Promega, Madison, Wis.) was prepared in one of two ways. If thawing a frozen aliquot of CellTiter-Glo® Reagent, the aliquot was thawed and equilibrated to room temperature prior to use while keeping it protected from light. Alternatively, new bottles of CellTiter-Glo® Buffer and CellTiter-Glo® Substrate were thawed and equilibrated to room temperature prior to use. CellTiter-Glo® Buffer (100 mL) was transferred into the amber bottle containing CellTiter-Glo® Substrate to reconstitute the lyophilized enzyme/substrate mixture, forming the CellTiter-Glo® Reagent. The reconstituted reagent was mixed by gently inverting the contents to obtain a homogeneous solution, and went into solution easily in less than one minute. Any unused reconstituted CellTiter-Glo® Reagent was immediately aliquoted and frozen at −20° C., protected from light. Cell plates were equilibrated at room temperature for approximately 30 minutes. An equivolume amount of CellTiter-Glo® Reagent (100 μL) was added to each well. Plates were mixed for two minutes on an orbital shaker to induce cell lysis, and then allowed to incubate at room temperature for 10 minutes to stabilize the luminescent signal. Luminescence was recorded using the PerkinElmer EnVision Excite Multilabel Reader used for endpoint reading for Luminescence detection (Waltham, Mass.). Data were analyzed using a four-parameter fit in Microsoft Excel. […]

[1] = molecular target: T1, EGFR wildtype, endogenous (Homo sapiens, UniProt P00533); experiment: pEGFR Y1068 ELISA assay, A549 cells; details: full serum media, stimulated 10 min with EGF (40 ng/mL), read-out: pEGFRY1068 ELISAA549 IC50;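 also: sandwich ELISA of phospho-EGFR Tyr1068 in cell lysates, cells exposed to compound for 2 h before EGF stimulation, 11-point threefold dilution series run in duplicate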
T1 construct: A549 (EGFR wildtype, endogenous); host or cells: A549
T1 sequence (P00533 25-1210): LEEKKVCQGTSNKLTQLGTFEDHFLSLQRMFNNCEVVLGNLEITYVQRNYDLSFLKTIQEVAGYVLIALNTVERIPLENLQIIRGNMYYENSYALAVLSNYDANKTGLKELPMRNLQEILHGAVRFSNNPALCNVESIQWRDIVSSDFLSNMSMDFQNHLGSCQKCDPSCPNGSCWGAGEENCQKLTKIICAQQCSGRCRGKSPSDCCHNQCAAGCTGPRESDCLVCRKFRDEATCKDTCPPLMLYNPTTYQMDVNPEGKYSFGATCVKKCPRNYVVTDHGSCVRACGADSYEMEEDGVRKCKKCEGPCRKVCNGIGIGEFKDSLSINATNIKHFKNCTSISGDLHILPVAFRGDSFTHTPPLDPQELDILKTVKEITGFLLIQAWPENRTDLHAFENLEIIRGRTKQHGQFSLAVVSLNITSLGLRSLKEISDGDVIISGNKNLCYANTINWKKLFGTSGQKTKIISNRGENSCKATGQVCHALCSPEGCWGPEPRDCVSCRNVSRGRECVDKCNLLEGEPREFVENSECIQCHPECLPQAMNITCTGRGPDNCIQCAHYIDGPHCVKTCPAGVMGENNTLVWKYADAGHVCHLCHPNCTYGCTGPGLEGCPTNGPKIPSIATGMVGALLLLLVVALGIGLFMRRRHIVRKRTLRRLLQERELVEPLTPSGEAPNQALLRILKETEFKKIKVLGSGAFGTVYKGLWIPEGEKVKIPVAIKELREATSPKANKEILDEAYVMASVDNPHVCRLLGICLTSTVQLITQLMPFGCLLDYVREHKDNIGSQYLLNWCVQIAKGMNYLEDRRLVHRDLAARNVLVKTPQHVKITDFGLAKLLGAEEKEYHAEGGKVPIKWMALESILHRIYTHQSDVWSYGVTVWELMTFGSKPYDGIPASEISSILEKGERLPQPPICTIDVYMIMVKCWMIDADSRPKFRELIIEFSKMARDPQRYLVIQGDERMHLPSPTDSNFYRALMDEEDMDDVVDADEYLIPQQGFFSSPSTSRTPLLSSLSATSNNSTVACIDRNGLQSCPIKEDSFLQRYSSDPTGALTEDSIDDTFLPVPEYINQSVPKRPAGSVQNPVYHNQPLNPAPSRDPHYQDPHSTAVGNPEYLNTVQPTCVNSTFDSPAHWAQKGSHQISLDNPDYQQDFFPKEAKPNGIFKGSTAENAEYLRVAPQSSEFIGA

NIH3T3/EGFR L858R+T790M = experiment: Cell proliferation assay (CellTiter-Glo), NIH3T3/EGFR L858R+T790M; details: Mus musculus, NIH3T3, 120 h, 3T3 cell line, three to five days of compound treatment, read-out: 3T3 L858R_T790M IC50
[2] = molecular target: T2, EGFR L858R+T790M, endogenous (Homo sapiens, UniProt P00533, L858R/T790M); experiment: pEGFR Y1068 ELISA assay, NCI-H1975 cells; details: value marked (H1975): NCI-H1975 cells, 2 hrs compound treatment; read-out: pEGFRY1068 ELISA3T3T790M—L858R IC50 (nM), (H1975);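 also: sandwich ELISA of endogenous phospho-EGFR (Tyr1068) in lysates of treated cells, 11-point 1:3 serial dilution tested in duplicate per plate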
T2 construct: NCI-H1975 (EGFR L858R+T790M, endogenous); host or cells: NCI-H1975
T2 sequence (P00533 25-1210 T790M/L858R): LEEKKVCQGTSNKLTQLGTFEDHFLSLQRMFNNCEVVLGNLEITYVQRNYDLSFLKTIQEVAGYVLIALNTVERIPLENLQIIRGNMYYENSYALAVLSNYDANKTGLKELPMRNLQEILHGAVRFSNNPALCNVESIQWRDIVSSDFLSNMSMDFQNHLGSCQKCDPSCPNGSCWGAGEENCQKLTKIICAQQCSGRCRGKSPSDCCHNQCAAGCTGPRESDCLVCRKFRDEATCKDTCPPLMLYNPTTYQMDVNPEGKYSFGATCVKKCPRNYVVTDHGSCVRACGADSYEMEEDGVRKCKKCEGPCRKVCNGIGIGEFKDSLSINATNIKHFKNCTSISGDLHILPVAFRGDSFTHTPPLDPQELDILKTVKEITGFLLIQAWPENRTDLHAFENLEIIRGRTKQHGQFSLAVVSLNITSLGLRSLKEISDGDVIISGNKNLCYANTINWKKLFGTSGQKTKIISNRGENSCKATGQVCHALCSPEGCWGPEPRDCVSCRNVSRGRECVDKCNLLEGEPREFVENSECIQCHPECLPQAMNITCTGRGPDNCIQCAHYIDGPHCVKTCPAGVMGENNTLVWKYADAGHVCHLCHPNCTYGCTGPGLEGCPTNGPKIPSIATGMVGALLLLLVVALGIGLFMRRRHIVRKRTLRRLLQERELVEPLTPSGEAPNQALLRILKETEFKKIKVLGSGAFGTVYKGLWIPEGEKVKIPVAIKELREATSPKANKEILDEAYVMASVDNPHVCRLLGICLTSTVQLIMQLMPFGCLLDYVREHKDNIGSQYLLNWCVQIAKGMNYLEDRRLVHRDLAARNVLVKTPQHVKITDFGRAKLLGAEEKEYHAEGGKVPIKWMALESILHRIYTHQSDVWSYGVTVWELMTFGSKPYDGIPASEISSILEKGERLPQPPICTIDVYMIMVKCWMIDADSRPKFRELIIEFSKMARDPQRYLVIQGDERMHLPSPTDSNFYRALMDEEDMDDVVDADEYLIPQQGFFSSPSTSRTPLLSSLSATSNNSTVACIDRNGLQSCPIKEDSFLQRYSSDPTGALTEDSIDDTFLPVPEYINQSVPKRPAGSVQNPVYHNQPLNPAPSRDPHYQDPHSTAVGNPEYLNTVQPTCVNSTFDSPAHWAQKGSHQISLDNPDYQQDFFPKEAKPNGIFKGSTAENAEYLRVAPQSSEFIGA

PC-9 = experiment: Cell proliferation assay (CellTiter-Glo), PC-9; details: Homo sapiens, value marked (PC9), read-out: 3T3 del IC50, (PC9)
Procedure: as §1

EGFR L858R, endogenous = molecular target: T3, EGFR L858R, endogenous (Homo sapiens, UniProt P00533, L858R); experiment: pEGFR Y1068 ELISA assay, NCI-H3255 cells; details: value marked (H3255): NCI-H3255 cells, 2 hrs compound treatment; read-out: pEGFRY1068 ELISA3T3 L858R IC50 (nM), (H3255)
T3 construct: NCI-H3255 (EGFR L858R, endogenous); endogenous in cells; host or cells: NCI-H3255
T3 sequence (P00533 25-1210 L858R): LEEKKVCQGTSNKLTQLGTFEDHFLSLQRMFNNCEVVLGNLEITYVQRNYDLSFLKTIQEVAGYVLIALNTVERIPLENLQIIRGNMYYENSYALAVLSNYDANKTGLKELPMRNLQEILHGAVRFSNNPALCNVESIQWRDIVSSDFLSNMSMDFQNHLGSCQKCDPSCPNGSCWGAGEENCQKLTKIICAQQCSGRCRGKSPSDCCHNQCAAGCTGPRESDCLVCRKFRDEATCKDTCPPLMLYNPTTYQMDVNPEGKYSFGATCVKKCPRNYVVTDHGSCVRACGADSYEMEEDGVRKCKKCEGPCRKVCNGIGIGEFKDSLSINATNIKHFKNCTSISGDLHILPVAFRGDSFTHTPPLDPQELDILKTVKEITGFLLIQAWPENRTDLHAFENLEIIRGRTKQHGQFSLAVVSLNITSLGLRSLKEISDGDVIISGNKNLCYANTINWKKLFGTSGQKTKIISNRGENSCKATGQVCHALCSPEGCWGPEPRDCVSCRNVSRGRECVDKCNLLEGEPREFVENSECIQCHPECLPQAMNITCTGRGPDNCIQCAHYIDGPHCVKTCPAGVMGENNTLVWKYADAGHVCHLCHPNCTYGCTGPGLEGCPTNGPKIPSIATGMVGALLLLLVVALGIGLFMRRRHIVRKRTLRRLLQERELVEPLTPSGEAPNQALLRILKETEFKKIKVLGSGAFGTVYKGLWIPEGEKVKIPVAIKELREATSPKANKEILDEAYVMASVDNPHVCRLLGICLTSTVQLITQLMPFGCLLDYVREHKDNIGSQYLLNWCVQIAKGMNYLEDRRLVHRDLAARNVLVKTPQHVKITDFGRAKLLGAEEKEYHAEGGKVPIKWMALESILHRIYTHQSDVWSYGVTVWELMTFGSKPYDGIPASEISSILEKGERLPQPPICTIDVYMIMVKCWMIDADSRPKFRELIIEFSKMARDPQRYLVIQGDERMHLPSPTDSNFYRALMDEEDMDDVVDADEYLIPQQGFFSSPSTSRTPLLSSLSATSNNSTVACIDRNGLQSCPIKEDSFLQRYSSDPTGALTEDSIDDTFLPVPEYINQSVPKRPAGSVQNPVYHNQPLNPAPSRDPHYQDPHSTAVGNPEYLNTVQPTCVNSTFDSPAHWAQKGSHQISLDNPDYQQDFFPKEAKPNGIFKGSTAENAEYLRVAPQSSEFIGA

NCI-H3255 = experiment: Cell proliferation assay (CellTiter-Glo), NCI-H3255; details: Homo sapiens, value marked (H3255), read-out: 3T3 L858R IC50, (H3255)
Procedure: as §1

EGFR Del (PC9) = molecular target: T4, EGFR Del (PC9) (Homo sapiens, UniProt P00533, DEL746-750); experiment: EGFR ELISA, PC9 Del cells; details: read-out: EGFR_ELISA9E PC9 Del IC50;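 also: cellular EGFR autophosphorylation at Tyr1068 quantified by sandwich ELISA of cell lysates after 2 h compound exposure at 37 °C, 11-point threefold dilution series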
T4 construct: endogenous in cells; host or cells: PC-9

EGFR L858R = EGFR L858R (Homo sapiens, UniProt P00533, L858R); experiment: pEGFR Y1068 ELISA assay, NIH3T3/EGFR_L858R cells; details: 3T3 cell line, 2 hrs compound treatment; read-out: pEGFRY1068 ELISA3T3 L858R IC50;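 also: sandwich ELISA of phospho-EGFR Tyr1068 in lysates of stably transfected NIH/3T3 pools after 2 h compound exposure at 37 °C, 11-point threefold dilution series run in duplicate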
PC9RK = experiment: Cell proliferation assay (CellTiter-Glo), PC9RK; details: value marked (PC9RK), read-out: 3T3 del_T790M IC50, (PC9RK)
Procedure: as §1, with “After three to five days of compound treatment, CellTiter-Glo® Reagent (#G7573, Promega, Madison, Wis.) was prepared in one of two ways. If thawing a frozen aliquot of CellTiter-Glo® Reagent, the aliquot was thawed and equilibrated to room temperature prior to use while keeping it protected from light. Alternatively, new bottles of CellTiter-Glo® Buffer and CellTiter-Glo® Substrate were thawed and equilibrated to room temperature prior to use. CellTiter-Glo® Buffer (100 mL) was transferred into the amber bottle containing CellTiter-Glo® Substrate to reconstitute the lyophilized enzyme/substrate mixture, forming the CellTiter-Glo® Reagent. The reconstituted reagent was mixed by gently inverting the contents to obtain a homogeneous solution, and went into solution easily in less than one minute. Any unused reconstituted CellTiter-Glo® Reagent was immediately aliquoted and frozen at −20° C., protected from light. Cell plates were equilibrated at room temperature for approximately 30 minutes. An equivolume amount of CellTiter-Glo® Reagent (100 μL) was added to each well. Plates were mixed for two minutes on an orbital shaker to induce cell lysis, and then allowed to incubate at room temperature for 10 minutes to stabilize the luminescent signal.” left out

NCI-H1975 = experiment: Cell proliferation assay (CellTiter-Glo), NCI-H1975; details: Homo sapiens, value marked (H1975), read-out: 3T3 L858R_T790M IC50, (H1975)
Procedure: as §1

EGFR L858R+T790M = EGFR L858R+T790M (Homo sapiens, UniProt P00533, L858R/T790M); experiment: pEGFR Y1068 ELISA assay, NIH3T3/EGFR_L858R+T790M cells; details: 3T3 cell line, 2 hrs compound treatment; read-out: pEGFRY1068 ELISA3T3T790M—L858R IC50;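 also: sandwich ELISA of EGFR phosphorylated at Tyr1068 in lysates of stably transfected NIH/3T3 cells, 11-point threefold dilution series run in duplicate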
Sequence of EGFR L858R+T790M (P00533 25-1210 T790M/L858R): as the sequence (P00533 25-1210 T790M/L858R) above

EGFR E746-A750 deletion = EGFR E746-A750 deletion (Homo sapiens, UniProt P00533, DEL746-750); experiment: pEGFR Y1068 ELISA assay, NIH3T3/EGFR_E746-A750 deletion cells; details: 3T3 Del cells, 2 hrs compound treatment; read-out: ELISA7E 3T3 Del IC50;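 also: sandwich ELISA on cell lysates detecting phospho-EGFR at Tyr1068, compounds run as 11-point threefold dilution series in duplicate, IC50 from inhibition of this phosphorylation signal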

Row | Compound | IC50 (PC9-DRH) [nM] | IC50 [1] [nM] | IC50 (NIH3T3/EGFR L858R+T790M) [nM] | IC50 [2] [nM] | IC50 (PC-9) [nM] | IC50 (EGFR L858R, endogenous) [nM] | IC50 (NCI-H3255) [nM] | IC50 (EGFR Del (PC9)) [nM] | IC50 (EGFR L858R) [nM] | IC50 (PC9RK) [nM] | IC50 (NCI-H1975) [nM] | IC50 (EGFR L858R+T790M) [nM] | IC50 (EGFR E746-A750 deletion) [nM]
1 | C=CC(=O)N1C[C@@H](F)[C@H](Nc2nc(Nc3cnn(C)c3)nc3[nH]cc(Cl)c23)C1 (single isomer, unassigned) [Example 83] | 10 to 100 | 450 | 10 to 100 | 5 | 100 to 1000 | 31 | 10 to 100 | 87 | – | – | – | – | –
2 | C=CC(=O)N1C[C@H](Nc2nc(Nc3cnn(C)c3)nc3[nH]cc(Cl)c23)[C@@H](C(F)(F)F)C1 [Example 87] | 100 to 1000 | 948 | 100 to 1000 | 14 | > 1000 | 43 | 10 to 100 | 48 | – | – | – | – | –
3 | C=CC(=O)N1CC[C@@H](Nc2nc(Nc3cnn(C)c3)nc3[nH]cc(Cl)c23)C1 [Example 96] | 10 to 100 | 2180 | 10 to 100 | 15 | 100 to 1000 | 101 | 100 to 1000 | 342 | – | – | – | – | –
4 | C=CC(=O)N1C[C@H](COc2nc(Nc3cnn(CCO)c3)nc3[nH]cc(Cl)c23)[C@@H](OC)C1 [Example 101] | – | > 10000 | – | 48 | > 1000 | – | 100 to 1000 | 6540 | 1010 | 100 to 1000 | > 1000 | – | –
5 | C=CC(=O)N1C[C@H](COc2nc(Nc3cnn([C@H]4CCOC4)c3)nc3[nH]cc(Cl)c23)[C@@H](OC)C1 [Example 102] | – | 4960 | – | – | 100 to 1000 | – | 100 to 1000 | – | 297 | 100 to 1000 | 100 to 1000 | 21 | 709
6 | C=CC(=O)N[C@H]1C[C@@H](Oc2nc(Nc3cnn(C)c3)nc3[nH]cc(-c4cccnc4)c23)C1 [Example 109] | – | 5540 | – | – | 10 to 100 | – | 100 to 1000 | 29 | 271 | 100 to 1000 | 100 to 1000 | 153 | 32
7 | C=CC(=O)N1C[C@H](COc2nc(Nc3cnn(C)c3)nc3[nH]cc(Cl)c23)[C@@H](C(F)(F)F)C1 [Example 110] | – | – | – | – | 100 to 1000 | – | 100 to 1000 | – | – | – | > 1000 | – | –
8 | C=CC(=O)N1C[C@H](COc2nc(Nc3ccn(C)n3)nc3[nH]cc(Cl)c23)[C@@H](OC)C1 [Example 111] | – | > 10000 | – | – | 100 to 1000 | – | 100 to 1000 | – | 352 | – | > 1000 | 14 | 886
9 | C=CC(=O)N[C@]1(C)C[C@H](Oc2nc(Nc3cnn(C)c3)nc3[nH]cc(Cl)c23)C1 [Example 114] | – | > 10000 | – | 39 | 100 to 1000 | 667 | 10 to 100 | 1200 | – | 100 to 1000 | 100 to 1000 | – | –
